Among the data in patent US9567342B2, “Certain protein kinase inhibitors” (SHANGHAI FOCHON PHARMACEUTICAL CO., LTD., priority 2012, dated 2017) are IC50 values, retold here.

In general, IC50 refers to the concentration at which inhibition is half-maximal.

Each structure is given as a SMILES string.

The assay relates to SU-DHL-1 cells. Description: Inhibition activity of cell proliferation (CCK-8 assay). Particulars: Homo sapiens, 72 h exposure. The format is cell-based. As for the experimental part:
SU-DHL-1 cells were seeded in 96-well tissue culture plates. On the next day, cells were exposed to various concentrations of compounds and further cultured for 72 h. Cell proliferation was then determined using Cell Counting Kit-8 [(CCK-8), Dojindo]assay. Briefly, add 10 μL of the CCK-8 solution to each well of the plate. Incubate the plate for 1-4 hours in the incubator. Measure the absorbance at 450 nm using a multi-well spectrophotometer (SpectraMAX 190, Molecular Devices). The inhibition rate (%) was calculated using the following equation: [1−(A450 Compound/A450 Control)]×100%. IC50 values were calculated according to inhibition curve by four-parameter fit.

Compound `Cc1cc(Nc2nc(Nc3ccccc3S(=O)(=O)C(C)C)c3c(C)n[nH]c3n2)c2c(c1C1CCNCC1)CCO2` [Example 1] yielded an IC50 of 0.0255 µM.
In the case of `Cc1cc(Nc2nc(Nc3ccccc3S(=O)(=O)C(C)C)c3c(C)n[nH]c3n2)c2c(c1C1CCN(C)CC1)CCO2` [Example 2, N-4-(2-(isopropylsulfonyl)phenyl)-3-methyl-N-6-(5-methyl-4-(1-methylpiperidin-4-yl)-2,3-dihydrobenzofuran-7-yl)-1H-pyrazolo[3,4-d]pyrimidine-4,6-diamine] it was 0.0189 µM.
In the case of `Cc1cc(Nc2nc(Nc3ccccc3S(=O)(=O)C(C)C)c3c(C)n[nH]c3n2)c2c(c1C1CCNCC1)C[C@@H](C)O2` [Example 3, (R)—N-6-(2,5-dimethyl-4-(piperidin-4-yl)-2,3-dihydrobenzofuran-7-yl)-N-4-(2-(isopropylsulfonyl)-phenyl)-3-methyl-1H-pyrazolo[3,4-d]pyrimidine-4,6-diamine] it was 0.061 µM; in that of `Cc1cc(Nc2nc(Nc3ccccc3S(=O)(=O)C(C)C)c3c(C)n[nH]c3n2)c2c(c1C1CCNCC1)C[C@H](C)O2` [Example 5], 0.0121 µM.
As for `Cc1cc(Nc2nc(Nc3ccccc3S(=O)(=O)C(C)C)c3c(C)n[nH]c3n2)c2c(c1C1CCN(C)CC1)C[C@H](C)O2` [Example 6], the half-maximal inhibitory concentration (IC50) amounted to 0.0346 µM.
In the case of `Cc1cc(Nc2nc(Nc3ccccc3S(=O)(=O)C(C)C)c3c(C)n[nH]c3n2)c2c(c1C1CCNCC1)CC(CO)O2` (stereo not shown) [Example 7, (7-(4-(2-(isopropylsulfonyl)phenylamino)-3-methyl-1H-pyrazolo[3,4-d]pyrimidin-6-ylamino)-5-methyl-4-(piperidin-4-yl)-2,3-dihydrobenzofuran-2-yl)methanol] it was 0.298 µM; in that of `COCC1Cc2c(c(Nc3nc(Nc4ccccc4S(=O)(=O)C(C)C)c4c(C)n[nH]c4n3)cc(C)c2C2CCNCC2)O1` (stereo not shown) [Example 8, N-4-(2-(isopropylsulfonyl)phenyl)-N-6-(2-(methoxymethyl)-5-methyl-4-(piperidin-4-yl)-2,3-dihydrobenzofuran-7-yl)-3-methyl-1H-pyrazolo[3,4-d]pyrimidine-4,6-diamine], 0.0527 µM; in that of `Cc1cc(Nc2ncc(Cl)c(Nc3ccccc3S(=O)(=O)C(C)C)n2)c2c(c1C1CCNCC1)C[C@@H](C)O2` [Example 9, (R)-5-chloro-N-2-(2,5-dimethyl-4-(piperidin-4-yl)-2,3-dihydrobenzofuran-7-yl)-N-4-(2-(isopropylsulfonyl)phenyl)pyrimidine-2,4-diamine], 0.0983 µM.
Next, `Cc1cc(Nc2ncc(Cl)c(Nc3ccccc3S(=O)(=O)C(C)C)n2)c2c(c1C1CCN(C)CC1)C[C@@H](C)O2` [Example 10, (R)-5-chloro-N-2-(2,5-dimethyl-4-(1-methylpiperidin-4-yl)-2,3-dihydrobenzofuran-7-yl)-N-4-(2-(isopropylsulfonyl)phenyl)pyrimidine-2,4-diamine]: under 0.0002 µM; `Cc1cc(Nc2ncc(Cl)c(Nc3ccccc3S(=O)(=O)C(C)C)n2)c2c(c1C1CCNCC1)C[C@H](C)O2` [Example 11, (S)-5-chloro-N-2-(2,5-dimethyl-4-(piperidin-4-yl)-2,3-dihydrobenzofuran-7-yl)-N-4-(2-(isopropylsulfonyl)phenyl)pyrimidine-2,4-diamine]: under 0.0041 µM.
Next, `Cc1cc(Nc2ncc(Cl)c(Nc3ccccc3S(=O)(=O)C(C)C)n2)c2c(c1C1CCN(C)CC1)C[C@H](C)O2` [Example 12]: 0.004 µM; `Cc1cc(Nc2ncc(Cl)c(Nc3ccccc3S(=O)(=O)C(C)C)n2)c2c(c1C1CCNCC1)CCO2` [Example 13]: under 0.0041 µM.
In turn, `Cc1cc(Nc2ncc(Cl)c(Nc3ccccc3S(=O)(=O)C(C)C)n2)c2c(c1C1CCN(C)CC1)CCO2` [Example 14] yielded an IC50 of 0.0066 µM.
Compound `CC(=O)N1CCC(c2c(C)cc(Nc3ncc(Cl)c(Nc4ccccc4S(=O)(=O)C(C)C)n3)c3c2C[C@H](C)O3)CC1` [Example 15, (S)-1-(4-(7-((5-chloro-4-((2-(isopropylsulfonyl)phenyl)amino)pyrimidin-2-yl)amino)-2,5-dimethyl-2,3-dihydrobenzofuran-4-yl)piperidin-1-yl)ethanone] showed an IC50 of 0.0382 µM.
The compound `CC(=O)N1CCC(c2c(C)cc(Nc3ncc(Cl)c(Nc4ccccc4S(=O)(=O)C(C)C)n3)c3c2C[C@@H](C)O3)CC1` [Example 16, (R)-1-(4-(7-((5-chloro-4-((2-(isopropylsulfonyl)phenyl)amino)pyrimidin-2-yl)amino)-2,5-dimethyl-2,3-dihydrobenzofuran-4-yl)piperidin-1-yl)ethanone] came in with a 50% inhibitory concentration (IC50) of 0.0116 µM. This IC50 is about 3.3-fold lower than that of the compound before.
In the case of `Cc1cc(Nc2ncc(Cl)c(Nc3ccccc3S(=O)(=O)C(C)C)n2)c2c(c1C1CCN(S(C)(=O)=O)CC1)C[C@H](C)O2` [Example 17, (S)-5-chloro-N-2-(2,5-dimethyl-4-(1-(methylsulfonyl)piperidin-4-yl)-2,3-dihydrobenzofuran-7-yl)-N-4-(2-(isopropylsulfonyl)phenyl)pyrimidine-2,4-diamine] it was 0.0685 µM.
As for `Cc1cc(Nc2ncc(Cl)c(Nc3ccccc3S(=O)(=O)C(C)C)n2)c2c(c1C1CCN(S(C)(=O)=O)CC1)C[C@@H](C)O2` [Example 18], the 50% inhibitory concentration (IC50) is 0.0159 µM.
In the case of `Cc1cc(Nc2ncc(Cl)c(Nc3ccccc3S(=O)(=O)C(C)C)n2)c2c(c1C1CCN(CC(=O)O)CC1)C[C@H](C)O2` [Example 19, (S)-2-(4-(7-((5-chloro-4-((2-(isopropylsulfonyl)phenyl)amino)pyrimidin-2-yl)amino)-2,5-dimethyl-2,3-dihydrobenzofuran-4-yl)piperidin-1-yl)acetic acid] it was 0.0049 µM; in that of `Cc1cc(Nc2ncc(Cl)c(Nc3ccccc3S(=O)(=O)C(C)C)n2)c2c(c1C1CCN(CC(=O)O)CC1)C[C@@H](C)O2` [Example 20, (R)-2-(4-(7-((5-chloro-4-((2-(isopropylsulfonyl)phenyl)amino)pyrimidin-2-yl)amino)-2,5-dimethyl-2,3-dihydrobenzofuran-4-yl)piperidin-1-yl)acetic acid], 0.0619 µM; in that of `Cc1cc(Nc2ncc(Cl)c(Nc3ccccc3S(=O)(=O)C(C)C)n2)c2c(c1C1CCN(C(=O)[C@H](C)N)CC1)C[C@H](C)O2` [Example 21, (S)-2-amino-1-(4-((S)-7-((5-chloro-4-((2-(isopropylsulfonyl)phenyl)amino)pyrimidin-2-yl)amino)-2,5-dimethyl-2,3-dihydrobenzofuran-4-yl)piperidin-1-yl)propan-1-one], 0.0686 µM.
Next, `Cc1cc(Nc2ncc(Cl)c(Nc3ccccc3S(=O)(=O)C(C)C)n2)c2c(c1C1CCN(C(=O)[C@H](C)N)CC1)C[C@@H](C)O2` [Example 22, (S)-2-amino-1-(4-((R)-7-((5-chloro-4-((2-(isopropylsulfonyl)phenyl)amino)pyrimidin-2-yl)amino)-2,5-dimethyl-2,3-dihydrobenzofuran-4-yl)piperidin-1-yl)propan-1-one]: 0.086 µM; `Cc1cc(Nc2ncc(Cl)c(Nc3ccccc3S(=O)(=O)C(C)C)n2)c2c(c1C1CCN(C[C@@H](C)O)CC1)C[C@@H](C)O2` [Example 23, (R)-1-(4-((R)-7-((5-chloro-4-((2-(isopropylsulfonyl)phenyl)amino)pyrimidin-2-yl)amino)-2,5-dimethyl-2,3-dihydrobenzofuran-4-yl)piperidin-1-yl)propan-2-ol]: 0.0123 µM.
